This is an account of results in publication PMC12528650, “The CsMYB36-CsSWEET17 module mediates the calcium-induced sucrose accumulation in citrus” (Horticulture Research, 2025).

This assay concerns the target T1, CsSWEET17 (Citrus sinensis, UniProt A0ACB8I933).
T1 construct: gene KPL71_027705; full-length CDS (705 bp, about 235 residues) in pDR196, expressed in Saccharomyces cerevisiae CSY4000 (W303 for esculin); seven TMs
Description: […]-sucrose uptake in CSY4000 yeast, nonlinear Michaelis-Menten fit. In kind it is cell-based. Particulars: pH 5.5; 30 °C; proton-coupled transport; labelled compound.

T1 sequence (A0ACB8I933 entry or part of it): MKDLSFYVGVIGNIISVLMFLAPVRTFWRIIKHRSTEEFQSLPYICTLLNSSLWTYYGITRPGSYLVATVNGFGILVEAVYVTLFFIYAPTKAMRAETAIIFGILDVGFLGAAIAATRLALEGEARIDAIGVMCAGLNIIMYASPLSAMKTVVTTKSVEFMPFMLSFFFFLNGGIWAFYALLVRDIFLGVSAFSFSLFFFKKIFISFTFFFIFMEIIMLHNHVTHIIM

What is called Km is the substrate concentration at which the rate is half of its maximum. Take `OC[C@H]1O[C@@](CO)(O[C@H]2O[C@H](CO)[C@@H](O)[C@H](O)[C@H]2O)[C@@H](O)[C@@H]1O` [sucrose]: the Km is 291 µM.
